Measurements from the NIST ThermoML archive (doi:10.1021/je700339f).

Experiment: xn = mol fraction of the nth substance listed
Settings: 298 K, Liquid

ClCCCCCCCl [1,6-dichlorohexane] + CN(C)C=O
mass density [kg/m3]
Settings	x2 = 0.0986	x2 = 0.2013	x2 = 0.3197	x2 = 0.4014	x2 = 0.5033	x2 = 0.6037	x2 = 0.7034	x2 = 0.8019	x2 = 0.9008
100 kPa	1056.4	1048.6	1038.2	1030.1	1019	1007.3	994.3	980	963.6
500 kPa	1056.6	1048.8	1038.4	1030.3	1019.3	1007.6	994.6	980.3	963.9
1000 kPa	–	1049.2	1038.8	1030.7	1019.6	1007.9	995	980.6	964.2
1100 kPa	1057.1	–	–	–	–	–	–	–	–
1500 kPa	1057.3	1049.6	1039.2	1031.1	1020	1008.2	995.3	980.9	964.5
2000 kPa	1057.7	1049.9	1039.5	1031.4	1020.3	1008.6	995.6	981.3	964.8
2500 kPa	1058	1050.2	1039.8	1031.7	1020.7	1008.9	995.9	981.6	965.1
2900 kPa	–	–	–	–	1021	–	–	–	–
3000 kPa	1058.4	1050.6	1040.2	1032.1	–	1009.2	996.3	981.9	965.4
3500 kPa	1058.7	1050.9	1040.5	1032.4	1021.3	1009.6	996.6	982.2	965.8
4000 kPa	1059.1	1051.3	1040.8	1032.8	1021.7	1009.9	996.9	982.6	966.1
4500 kPa	1059.4	1051.6	1041.2	1033.2	1022	1010.2	997.2	982.9	966.4
4900 kPa	–	–	–	–	–	–	–	983.2	–
5000 kPa	1059.8	1052	1041.5	1033.4	1022.3	1010.5	997.5	–	966.7
5500 kPa	1060.1	1052.3	1041.8	1033.8	1022.6	1010.9	997.8	983.5	967
5900 kPa	–	–	–	–	–	1011.2	–	–	–
6000 kPa	1060.4	1052.6	1042.2	1034.2	1023	–	998.2	983.9	967.3
6400 kPa	–	–	–	–	–	–	–	984.2	–
6500 kPa	1060.8	1053	1042.6	1034.5	1023.3	1011.5	998.5	–	967.7
6900 kPa	–	–	–	1034.8	–	–	–	–	967.8
7000 kPa	1061.1	1053.3	1042.9	–	1023.7	1011.9	998.8	984.5	–
7400 kPa	–	–	–	1035.1	–	–	–	–	–
7500 kPa	1061.5	1053.7	1043.2	–	1024	1012.2	999.1	984.8	968.2
7900 kPa	1061.8	–	–	–	–	–	–	–	–
8000 kPa	–	1054	1043.5	1035.5	1024.4	1012.6	999.5	985.1	968.5
8400 kPa	–	–	–	–	–	1012.8	–	985.4	968.8
8500 kPa	1062.2	1054.4	1043.8	1035.8	1024.6	–	999.8	–	–
8900 kPa	–	–	–	–	–	1013.1	–	–	–
9000 kPa	1062.5	1054.7	1044.2	1036.1	1025	–	1000.1	985.8	969.1
9400 kPa	–	–	–	–	–	–	–	–	969.4
9500 kPa	1062.8	1055.1	1044.5	1036.5	1025.3	1013.5	1000.4	986.1	–
10000 kPa	1063.1	1055.5	1044.9	1036.9	–	–	–	–	–
